# Assay results from ChEMBL document CHEMBL6109061, “Discovery of an Ultralong-acting Nondepolarizing Neuromuscular Blocker That Displays Short Onset Time and On-Demand Rapid Reversal by a Biocompatible Antagonist” (J Med Chem, 2025).
# Active and inactive are the calls of the source. The calls are words filed in the database; no cut-off is given here.
# How the values were obtained:
# [1] = Solubility of compound in water; type: physicochemical
# Rattus norvegicus [2] = test: Neuromuscular block activity in propofol-induced anesthetized Sprague-Dawley rat model assessed as time duration of 0 to 25 percent recovery indices at 0.04 mg/kg, iv; type: functional
# Rattus norvegicus [3] = test: Neuromuscular block activity in propofol-induced anesthetized Sprague-Dawley rat model assessed as recovery time at 0.04 mg/kg, iv; type: functional
# Rattus norvegicus [4] = test: Neuromuscular block activity in propofol-induced anesthetized Sprague-Dawley rat model assessed as onset time required for twitch reduction at 0.04 mg/kg, iv; type: functional
# Rattus norvegicus [5] = test: Neuromuscular block activity in propofol-induced anesthetized Sprague-Dawley rat model assessed as inhibition of twitch by measuring twitch intensity of quadriceps muscle at 0.04 mg/kg, iv administered as bolus dose by TOF watch monitor analysis relative to control; type: functional
# Rattus norvegicus [6] = test: Neuromuscular block activity in propofol-induced anesthetized Sprague-Dawley rat model assessed as inhibition of twitch by measuring twitch intensity of quadriceps muscle at 0.6 mg/kg, iv administered as bolus dose by TOF watch monitor analysis relative to control; type: functional
# Rattus norvegicus [7] = test: Neuromuscular block activity in propofol-induced anesthetized Sprague-Dawley rat model assessed as inhibition of twitch by measuring twitch intensity of quadriceps muscle at 0.3 mg/kg, iv administered as bolus dose by TOF watch monitor analysis relative to control; type: functional
# Rattus norvegicus [8] = test: Neuromuscular block activity in propofol-induced anesthetized iv dosed Sprague-Dawley rat model assessed as minimum dose for complete neuromuscular block; type: functional; settings: read-out: MED
# Rattus norvegicus [9] = organism: Rattus norvegicus; test: Recovery of Pan-induced neuromuscular block in Sprague-Dawley rat assessed as […] ratio (TOFr) <= 25% by measuring recovery time; type: functional
# Rattus norvegicus [10] = test: Neuromuscular block activity in propofol-induced anesthetized Sprague-Dawley rat model assessed as reduction in twitch inhibition by measuring twitch intensity of quadriceps muscle at 0.3 mg/kg, iv administered as bolus dose by TOF watch monitor analysis; type: functional, organism-based
# Rattus norvegicus [11] = test: Neuromuscular block activity in propofol-induced anesthetized Sprague-Dawley rat model assessed as inhibition of twitch by measuring twitch intensity of quadriceps muscle at 5 mg/kg, iv administered as bolus dose by TOF watch monitor analysis relative to control; type: functional
# Rattus norvegicus [12] = test: Neuromuscular block activity in propofol-induced anesthetized Sprague-Dawley rat model assessed as inhibition of twitch by measuring twitch intensity of quadriceps muscle at 0.5 mg/kg, iv administered as bolus dose by TOF watch monitor analysis relative to control; type: functional
SMILES,solubility [1],inhibition in vivo at 0.04 mg/kg (Rattus norvegicus [5]),inhibition in vivo at 0.3 mg/kg (Rattus norvegicus [7]),minimal effective dose (Rattus norvegicus [8]),further results
Cc1n2cc[n+]1Cc1ccc(cc1)Oc1ccc(cc1)C[n+]1ccn(c1C)CCCCn1cc[n+](c1C)Cc1ccc(cc1)Oc1ccc(cc1)C[n+]1ccn(c1C)CCCC2.[Cl-].[Cl-].[Cl-].[Cl-],≥ 50 mM,100%,–,–,Time (Rattus norvegicus [2]): 47 min; Time (Rattus norvegicus [3]): 16 min; Time (Rattus norvegicus [4]): 102 s
c1c[n+]2ccc1CCCc1cc[n+](cc1)Cc1ccc(cc1)Oc1ccc(cc1)C[n+]1ccc(cc1)CCCc1cc[n+](cc1)Cc1ccc(cc1)Oc1ccc(cc1)C2,–,0%,38%,–,inhibition in vivo at 0.6 mg/kg (Rattus norvegicus [6]): 100%
COC(=O)c1cc2cc(c1)Cn1cc[n+](c1)Cc1ccc(cc1)-c1ccc(cc1)C[n+]1ccn(c1)Cc1cc(cc(C(=O)OC)c1)Cn1cc[n+](c1)Cc1ccc(cc1)-c1ccc(cc1)C[n+]1ccn(c1)C2.[Cl-].[Cl-].[Cl-].[Cl-],≥ 50 mM,–,5%,1.5 mg/kg,–
[Cl-].[Cl-].[Cl-].[Cl-].c1cc2cc(c1)Cn1cc[n+](c1)Cc1ccc(cc1)-c1ccc(cc1)C[n+]1ccn(c1)Cc1cccc(c1)Cn1cc[n+](c1)Cc1ccc(cc1)-c1ccc(cc1)C[n+]1ccn(c1)C2,≥ 50 mM,–,43%,0.6 mg/kg,–
[Cl-].[Cl-].[Cl-].[Cl-].c1cc2ccc1Cn1cc[n+](c1)Cc1ccc(cc1)-c1ccc(cc1)C[n+]1ccn(c1)Cc1ccc(cc1)Cn1cc[n+](c1)Cc1ccc(cc1)-c1ccc(cc1)C[n+]1ccn(c1)C2,≥ 50 mM,–,3%,1.2 mg/kg,Time (Rattus norvegicus [9]): 36 min
[Cl-].[Cl-].[Cl-].[Cl-].c1cc2ccc1Cc1ccc(cc1)C[n+]1ccn(c1)Cc1ccc(o1)Cn1cc[n+](c1)Cc1ccc(cc1)Cc1ccc(cc1)C[n+]1ccn(c1)Cc1ccc(o1)Cn1cc[n+](c1)C2,≥ 50 mM,–,0%,5 mg/kg,Activity (Rattus norvegicus [10]): inactive
Cc1n2cc[n+]1Cc1ccc(cc1)Oc1ccc(cc1)C[n+]1ccn(c1C)CCCCCn1cc[n+](c1C)Cc1ccc(cc1)Oc1ccc(cc1)C[n+]1ccn(c1C)CCCCC2.[Cl-].[Cl-].[Cl-].[Cl-],≥ 50 mM,58%,–,–,–
[Cl-].[Cl-].[Cl-].[Cl-].c1cc2ccc1Cn1cc[n+](c1)Cc1ccc(cc1)Oc1ccc(cc1)C[n+]1ccn(c1)Cc1ccc(cc1)Cn1cc[n+](c1)Cc1ccc(cc1)Oc1ccc(cc1)C[n+]1ccn(c1)C2,≥ 50 mM,–,2%,0.9 mg/kg,Time (Rattus norvegicus [9]): 30 min
Cc1n2cc[n+]1Cc1cccc(c1)C[n+]1ccn(c1C)CCCn1cc[n+](c1C)Cc1cccc(c1)C[n+]1ccn(c1C)CCC2,–,0%,–,–,inhibition in vivo at 5 mg/kg (Rattus norvegicus [11]): 100%; inhibition in vivo at 0.5 mg/kg (Rattus norvegicus [12]): 11%
[Cl-].[Cl-].[Cl-].[Cl-].c1cc2ccc1Cc1ccc(cc1)C[n+]1ccn(c1)Cc1ccc(cc1)Cn1cc[n+](c1)Cc1ccc(cc1)Cc1ccc(cc1)C[n+]1ccn(c1)Cc1ccc(cc1)Cn1cc[n+](c1)C2,≥ 50 mM,–,17%,1.8 mg/kg,Time (Rattus norvegicus [9]): 32 min
[Cl-].[Cl-].[Cl-].[Cl-].c1ccc2c(c1)n1c[n+]2Cc2ccc(cc2)Oc2ccc(cc2)C[n+]2cn(c3ccccc32)CCCCCn2c[n+](c3ccccc32)Cc2ccc(cc2)Oc2ccc(cc2)C[n+]2cn(c3ccccc32)CCCCC1,~0.5 mM,0%,–,–,Time (Rattus norvegicus [2]): 27 min
Cc1n2cc[n+]1Cc1ccc(cc1)Oc1ccc(cc1)C[n+]1ccn(c1C)CCCCCCCn1cc[n+](c1C)Cc1ccc(cc1)Oc1ccc(cc1)C[n+]1ccn(c1C)CCCCCCC2.[Cl-].[Cl-].[Cl-].[Cl-],≥ 50 mM,100%,–,–,Time (Rattus norvegicus [2]): 61 min; Time (Rattus norvegicus [3]): 18 min; Time (Rattus norvegicus [4]): 498 s
Cc1n2cc[n+]1Cc1ccc(cc1)Oc1ccc(cc1)C[n+]1ccn(c1C)Cc1cccc(c1)Cn1cc[n+](c1C)Cc1ccc(cc1)Oc1ccc(cc1)C[n+]1ccn(c1C)Cc1cccc(c1)C2.[Cl-].[Cl-].[Cl-].[Cl-],≥ 50 mM,54%,100%,0.1 mg/kg,–
Cc1n2cc[n+]1Cc1ccc(cc1)Oc1ccc(cc1)C[n+]1ccn(c1C)Cn1cc[n+](c1C)Cc1ccc(cc1)Oc1ccc(cc1)C[n+]1ccn(c1C)C2.[Cl-].[Cl-].[Cl-].[Cl-],≥ 50 mM,63%,–,–,–
[Cl-].[Cl-].[Cl-].[Cl-].c1cc2cc(c1)Cn1cc[n+](c1)Cc1ccc(cc1)Oc1ccc(cc1)C[n+]1ccn(c1)Cc1cccc(c1)Cn1cc[n+](c1)Cc1ccc(cc1)Oc1ccc(cc1)C[n+]1ccn(c1)C2,≥ 50 mM,–,100%,0.16 mg/kg,–
COC(=O)c1cc2cc(c1)Cn1cc[n+](c1)Cc1ccc(cc1)Oc1ccc(cc1)C[n+]1ccn(c1)Cc1cc(cc(C(=O)OC)c1)Cn1cc[n+](c1)Cc1ccc(cc1)Oc1ccc(cc1)C[n+]1ccn(c1)C2.[Cl-].[Cl-].[Cl-].[Cl-],≥ 50 mM,–,50%,0.6 mg/kg,–
O=C(O)c1cc2cc(c1)Cn1cc[n+](c1)Cc1ccc(cc1)-c1ccc(cc1)C[n+]1ccn(c1)Cc1cc(cc(C(=O)O)c1)Cn1cc[n+](c1)Cc1ccc(cc1)-c1ccc(cc1)C[n+]1ccn(c1)C2.[Cl-].[Cl-].[Cl-].[Cl-],≥ 50 mM,–,0%,1.2 mg/kg,Activity (Rattus norvegicus [10]): inactive
[Cl-].[Cl-].[Cl-].[Cl-].c1cc2cc(c1)Cn1cc[n+](c1)Cc1ccc(cc1)Cc1ccc(cc1)C[n+]1ccn(c1)Cc1cccc(c1)Cn1cc[n+](c1)Cc1ccc(cc1)Cc1ccc(cc1)C[n+]1ccn(c1)C2,≥ 50 mM,–,15%,2 mg/kg,–
CCc1n2cc[n+]1Cc1ccc(cc1)Oc1ccc(cc1)C[n+]1ccn(c1CC)CCCCCn1cc[n+](c1CC)Cc1ccc(cc1)Oc1ccc(cc1)C[n+]1ccn(c1CC)CCCCC2.[Cl-].[Cl-].[Cl-].[Cl-],≥ 50 mM,100%,–,–,Time (Rattus norvegicus [3]): 13 min; Time (Rattus norvegicus [4]): 222 s
Cc1n2cc[n+]1Cc1ccc(cc1)C[n+]1ccn(c1C)CCCn1cc[n+](c1C)Cc1ccc(cc1)C[n+]1ccn(c1C)CCC2,–,0%,–,–,inhibition in vivo at 5 mg/kg (Rattus norvegicus [11]): 100%; inhibition in vivo at 0.5 mg/kg (Rattus norvegicus [12]): 0%
O=C(O)c1cc2cc(c1)Cn1cc[n+](c1)Cc1ccc(cc1)Oc1ccc(cc1)C[n+]1ccn(c1)Cc1cc(cc(C(=O)O)c1)Cn1cc[n+](c1)Cc1ccc(cc1)Oc1ccc(cc1)C[n+]1ccn(c1)C2.[Cl-].[Cl-].[Cl-].[Cl-],≥ 50 mM,–,0%,1 mg/kg,Activity (Rattus norvegicus [10]): inactive
[Cl-].[Cl-].[Cl-].[Cl-].c1cc2ccc1C[n+]1ccn(c1)CCCCCn1cc[n+](c1)Cc1ccc(cc1)Oc1ccc(cc1)C[n+]1ccn(c1)CCCCCn1cc[n+](c1)Cc1ccc(cc1)O2,≥ 50 mM,100%,–,–,Time (Rattus norvegicus [2]): 41 min; Time (Rattus norvegicus [3]): 31 min; Time (Rattus norvegicus [4]): 138 s
